Data as given in patent US20220348569A1 (priority 2021, published 2022).
Where “and” joins values, the source holds several entries; their conditions need not be identical. Equal values may be shown once. Read-outs that look alike come from different tables or passages of the source.

Tested on: SARS-CoV-2 pseudoviruses carrying spike mutations of B.1.1.7 UK, B.1.351 RSA and B.1.617.2 India (Delta) variants
Format: cell-based

| SMILES | antiviral activity against mutant pseudoviruses (in words) | IC50 (read-out: IC50) | IC50 (read-out: IC50 in the range for all the pseudovirus variants) | IC50 (read-out: IC50 against B.1.617.2 Delta single, double and triple mutant variants) |
| --- | --- | --- | --- | --- |
| O=C(O)c1cc(-c2ccc(/C=C3\SC(=S)N(CCc4ccccc4)C3=O)o2)ccc1Cl [Compound 1, (Z)-2-Chloro-5-(5-((4-oxo-3-phenethyl-2-thioxothiazolidin-5-ylidene)methyl)furan-2-yl)benzoic acid] | potent antiviral activity against all mutant pseudoviruses | 57 nM and 33 nM |  |  |
| O=C(O)c1cccc(-c2ccc(/C=C3\SC(=S)N(CCc4ccccc4)C3=O)o2)c1 [Compound 2] | highly potent inhibitor against all mutant pseudoviruses |  | 35 to 88.7 nM |  |
| O=C(O)c1cc(-c2ccc(/C=C3\SC(=S)N(CCc4ccccc4)C3=O)o2)ccc1F [Compound 3] | slightly less efficient against all the pseudoviruses tested | 232 ± 17 nM |  |  |
| Cc1ccc(-c2ccc(/C=C3\SC(=S)N(CCc4ccccc4)C3=O)o2)cc1C(=O)O [Compound 4] |  |  |  | 148 to 239 nM |
| Cc1c(C(=O)O)cccc1-c1ccc(/C=C2\SC(=S)N(CCc3ccccc3)C2=O)o1 [Compound 5] | poor/no activity | > 2000 nM and 1730 nM and 1850 nM and 1720 nM |  |  |
